Results as given in patent US20070054266A1, “Chemical sensor system” (NATIONAL INSTITUTE of ADVANCED INDUSTRIAL SCIENCE and …, priority 2002, published 2007).

Experiments:
[1] = tested on: olfactory receptor car-b85; experiment: Odor response of olfactory cell expressing olfactory receptor car-b85 (fura-2 calcium fluorescence); assay type: cell-based, mouse; conditions: car-b85, odor quality Mint; for Response at 1 μM: responders at 1 μM with rank order; for Response at 10 μM: responders at 10 μM
From the text: It is reported that, in mice, the olfactory receptor is expressed is olfactory cells and detects and identifies odor molecules (Cell 96: 713-723 (1999) and the like). It is reported that there are four zones indicated by No. 1 to 4 in order from the dorsum to the ventral olfactory epithelium wherein olfactory cells are distributed and each olfactory receptor is limitedly expressed in any one of the four zones (Science 286 (5440): 706-711 (1999) and the like). As it is estimated by gene analysis estimates that there are about 1,000 types of olfactory receptors, the responsiveness to specific odor molecules of the olfactory cells sampled in statistically significant number from the four zones is equivalent. Therefore, in the present invention, the responsiveness of 2,740 olfactory cells, about 2.7 times as many as 1,000 specific types of cells, was investigated. It cannot be declared that the statistical significance is maintained for all zones, as the number of types of olfactory receptor included in each zone is not clear. […] Respectively, 2, 2, 1 and 1 type(s) of genes identified by RT-PCR determined from a single cell among such olfactory cells were found and described in the present invention. The olfactory epithelium was quickly excised from a mouse euthanized by decapitation under anesthesia and divided into small pieces. These pieces were trypsinized to cleave intercellular junctions, and a sample of viable multiple mouse olfactory cells isolated from cells adhered to a cover slip by softly putting the treated pieces onto the cover slip taking care not to rupture them. Calcium-sensitive fluorescent dye fura-2 was intracellularly loaded on the sample, a solution of each odor molecule was administered, and the transient increase in intracellular calcium concentration triggered by the olfactory cells responding was detected by measuring and analysing the change in fura-2 fluorescence intensity within the cell using a microscope (Nikon), high-sensitive SIT video camera and image analysis device Argus-50 (Hamamatsu Photonics for both of the latter two), allowing the analysis individual cells response to specific odor molecules. […] The olfactory receptors with high sensitivity to specific odor qualities are shown as follows.

[2] = tested on: olfactory cells; experiment: Responsiveness of 2,740 isolated olfactory cells to odor molecules (fura-2 calcium fluorescence); assay type: cell-based, mouse; conditions: for number of olfactory cells responding, with higher sensitivity than others and to the same extent, to both pulegone and (−)menthone / number of olfactory cells responding, with the highest sensitivity and to the same extent, to both R(−)carvone and S(+)carvone / number of olfactory cells sensitively and selectively responding: of 2,740 olfactory cells investigated
From the text: (§1) It is reported that, in mice, the olfactory receptor is expressed is olfactory cells and detects and identifies odor molecules (Cell 96: 713-723 (1999) and the like). It is reported that there are four zones indicated by No. 1 to 4 in order from the dorsum to the ventral olfactory epithelium wherein olfactory cells are distributed and each olfactory receptor is limitedly expressed in any one of the four zones (Science 286 (5440): 706-711 (1999) and the like). As it is estimated by gene analysis estimates that there are about 1,000 types of olfactory receptors, the responsiveness to specific odor molecules of the olfactory cells sampled in statistically significant number from the four zones is equivalent. Therefore, in the present invention, the responsiveness of 2,740 olfactory cells, about 2.7 times as many as 1,000 specific types of cells, was investigated. It cannot be declared that the statistical significance is maintained for all zones, as the number of types of olfactory receptor included in each zone is not clear. […] As a result, 4 olfactory cells sensitively and selectively responding to R(−)carvone of spearmint odor of a typical olfactory source, 18 olfactory cells sensitively and selectively responding to S(+)carvone of caraway odor of another typical olfactory source, 3 olfactory cells responding, with higher sensitivity than others and to the same extent, to both pulegone and (−)menthone commonly having mint odor of another typical olfactory source, and 3 olfactory cells responding, with the highest sensitivity and to the same extent, to both R(−)carvone and S(+)carvone commonly having sweet odor of another typical olfactory source were found. Respectively, 2, 2, 1 and 1 type(s) of genes identified by RT-PCR determined from a single cell among such olfactory cells were found and described in the present invention.
The olfactory epithelium was quickly excised from a mouse euthanized by decapitation under anesthesia and divided into small pieces. These pieces were trypsinized to cleave intercellular junctions, and a sample of viable multiple mouse olfactory cells isolated from cells adhered to a cover slip by softly putting the treated pieces onto the cover slip taking care not to rupture them. Calcium-sensitive fluorescent dye fura-2 was intracellularly loaded on the sample, a solution of each odor molecule was administered, and the transient increase in intracellular calcium concentration triggered by the olfactory cells responding was detected by measuring and analysing the change in fura-2 fluorescence intensity within the cell using a microscope (Nikon), high-sensitive SIT video camera and image analysis device Argus-50 (Hamamatsu Photonics for both of the latter two), allowing the analysis individual cells response to specific odor molecules. Olfactory cell with a confirmed response were individually sampled with a micropipette containing 4 μl of cell lysis mix (1×MMLV buffer (GIBCO BRL), 0.5% NP-40, 290 U/ml RNA guard (Pharmacia), 300 U/ml Prime RNase inhibitor (Eppendorf), 10 μM each dNTP, 200 ng/ml pd(T)25-30) under microscopy and moved into a tube for PCR. After the tube was incubated at 65° C. for 1 minute, 0.5 μl of RT mixed solution containing 50 U of MMLV reverse transcriptase (GIBCO BRL) and 0.5 U of AMV reverse transcriptase (GIBCO BRL) was added to each tube, followed by reverse-transcription at 37° C. for 30 minutes and treatment at 65° C. for 10 minutes prior to the termination of reaction. To form polyA tails, 5 μl of 2×TdT buffer (GIBCO BRL), 1.5 mM DATP, and 3 U/μl Terminal deoxynucleotidyl transferase (GIBCO BRL) were added, followed by incubation at 37° C. for 15 minutes and treatment at 65° C. for 10 minutes prior to the termination of reaction. […]

[3] = tested on: olfactory receptor car-n272; experiment: Odor response of olfactory cell expressing olfactory receptor car-n272 (fura-2 calcium fluorescence); assay type: cell-based, mouse; conditions: car-n272, odor quality Spearmint; for Response at 10 μM: odor molecules listed are those giving a response at 10 μM
From the text: (§2) It is reported that, in mice, the olfactory receptor is expressed is olfactory cells and detects and identifies odor molecules (Cell 96: 713-723 (1999) and the like). It is reported that there are four zones indicated by No. 1 to 4 in order from the dorsum to the ventral olfactory epithelium wherein olfactory cells are distributed and each olfactory receptor is limitedly expressed in any one of the four zones (Science 286 (5440): 706-711 (1999) and the like). As it is estimated by gene analysis estimates that there are about 1,000 types of olfactory receptors, the responsiveness to specific odor molecules of the olfactory cells sampled in statistically significant number from the four zones is equivalent. Therefore, in the present invention, the responsiveness of 2,740 olfactory cells, about 2.7 times as many as 1,000 specific types of cells, was investigated. It cannot be declared that the statistical significance is maintained for all zones, as the number of types of olfactory receptor included in each zone is not clear. […] Respectively, 2, 2, 1 and 1 type(s) of genes identified by RT-PCR determined from a single cell among such olfactory cells were found and described in the present invention.
(§3) The olfactory epithelium was quickly excised from a mouse euthanized by decapitation under anesthesia and divided into small pieces. […] Calcium-sensitive fluorescent dye fura-2 was intracellularly loaded on the sample, a solution of each odor molecule was administered, and the transient increase in intracellular calcium concentration triggered by the olfactory cells responding was detected by measuring and analysing the change in fura-2 fluorescence intensity within the cell using a microscope (Nikon), high-sensitive SIT video camera and image analysis device Argus-50 (Hamamatsu Photonics for both of the latter two), allowing the analysis individual cells response to specific odor molecules. […]

[4] = tested on: olfactory receptor car-c5; experiment: Odor response of olfactory cell expressing olfactory receptor car-c5 (fura-2 calcium fluorescence); assay type: cell-based, mouse; conditions: car-c5, odor quality Spearmint; for Response at 10 μM: responders at 10 μM
From the text: as §2, §3

[5] = tested on: olfactory receptor car-n266; experiment: Odor response of olfactory cell expressing olfactory receptor car-n266 (fura-2 calcium fluorescence); assay type: cell-based, mouse; conditions: car-n266, Sweet odor; for Response at 1 μM: responders at 1 μM; for Response at 10 μM: responders at 10 μM
From the text: as §1, §3

[6] = tested on: olfactory receptor C257; experiment: Response characteristics of olfactory receptor C257 expressed in cultured cell CHO; assay type: cell-based; conditions: sensitivity one order of magnitude lower than in olfactory receptor cell (FIG. 16)
From the text: Next, in this Example, response characteristics of olfactory receptor C257 were studied. A) is the case wherein it is expressed in olfactory receptor cell, and B) is the case wherein it is expressed in cell established and cultured cell CHO. […] However, response to sCa was not apparent (FIG. 16). […] Regarding discrimination, characteristics of the olfactory receptor can be considered to be expressed, independent of the cell type. However, regarding sensitivity and response starting time, they are change with regards to all odor molecules depending on the cell type. Therefore, it is necessary to evaluate the stimulation quality, paying attention to this point.

[7] = tested on: olfactory receptor car-b161; experiment: Odor response of olfactory cell expressing olfactory receptor car-b161 (fura-2 calcium fluorescence); assay type: cell-based, mouse; conditions: car-b161, odor quality Caraway; responders at 10 μM
From the text: (§4) It is reported that, in mice, the olfactory receptor is expressed is olfactory cells and detects and identifies odor molecules (Cell 96: 713-723 (1999) and the like). It is reported that there are four zones indicated by No. 1 to 4 in order from the dorsum to the ventral olfactory epithelium wherein olfactory cells are distributed and each olfactory receptor is limitedly expressed in any one of the four zones (Science 286 (5440): 706-711 (1999) and the like). […] Respectively, 2, 2, 1 and 1 type(s) of genes identified by RT-PCR determined from a single cell among such olfactory cells were found and described in the present invention.
as §3

[8] = tested on: olfactory receptor car-b153; experiment: Odor response of olfactory cell expressing olfactory receptor car-b153 (fura-2 calcium fluorescence); assay type: cell-based, mouse; conditions: car-b153, odor quality Caraway; responders at 10 μM
From the text: as §4, §3

[9] = of about 70-100 kinds of receptors
[10] = 1 μM, cells selective for the respective carvone (FIG. 8)

SMILES	Response at 1 μM [1]	Response at 10 μM [1]	number of olfactory cells responding, with higher sensitivity than others and to the same extent, to both pulegone and (−)menthone [2]	Response at 10 μM [3]	Response at 10 μM [4]	Response at 1 μM [5]	Response at 10 μM [5]	number of selective cells responding at 1 μM [2, 10]	number of olfactory cells responding, with the highest sensitivity and to the same extent, to both R(−)carvone and S(+)carvone [2]	number of olfactory cells sensitively and selectively responding [2]	fraction of the carvone-identifying olfactory receptors responding with relatively high sensitivity [2, 9]	response of olfactory receptor C257 when expressed in CHO [6]	also measured
CC(C)=C1CC[C@@H](C)CC1=O [pu, (R)-p-menth-4(8)-en-3-one]	pu, mn > sCa, rCa	pu	3 olfactory cells										
CC(C)[C@@H]1CC[C@@H](C)CC1=O [mn, (2S,5R)-2-isopropyl-5-methylcyclohexanone]	pu, mn > sCa, rCa	mn	3 olfactory cells										
C=C(C)C1CC=C(C)C(=O)C1 (stereo not drawn) [carvone]													number of cells responding equally to both carvones at 1 μM ([2]; 1 μM): three; kinds of olfactory receptors functioning to identify carvone ([2]; corresponding to about 9.6% of about 1,000 kinds): 70-100 kinds; olfactory cells responding to carvone, share of the total ([2]; of 2,740 olfactory cells): 9.6%; number of olfactory cells responding to carvone ([2]; of 2,740 olfactory cells, carvone = both S(+)carvone and R(−)carvone): 263; fraction of the carvone-identifying olfactory receptors responding to both carvones equally with relatively high sensitivity [2, 9]: about ⅖
C=C(C)[C@@H]1CC=C(C)C(=O)C1 [rCa, R(−)-5-isopropenyl-2-methyl-2-cyclohexenon]	pu, mn > sCa, rCa	rCa		rCa	rCa	rCa	rCa	four	3 olfactory cells	4 olfactory cells	about ⅕	high sensitivity could be confirmed	Response at 1 μM ([3]; odor molecules listed are those giving a response at 1 μM): rCa; Response at 1 μM ([4]; responders at 1 μM): rCa
C=C(C)C1CCC(C)CC1O (stereo not drawn) [ip, 2-isopropenyl-5-methylcyclohexanol]		ip											
C=C(C)[C@H]1CC=C(C)C(=O)C1 [sCa, S(+)-5-isopropenyl-2-methyl-2-cyclohexenon]	pu, mn > sCa, rCa	sCa		sCa	sCa	sCa	sCa	two	3 olfactory cells	18 olfactory cells	about ⅕	not apparent	Response at 10 μM [7]: sCa; Response at 10 μM [8]: sCa; number of selective cells responding at 10 μM ([2]; 10 μM, cells selective for the respective carvone (FIG. 8)): seventeen
